Assay results taken from ChEMBL document CHEMBL6182949 (J Med Chem, 2025).
Converted amounts (≈) assume the structure as drawn. The source made the active and inactive calls. The calls are words filed in the database; no cut-off is given here.

Key:
[1] = Metabolic stability in cynomolgus monkey liver microsome assessed as half life at 1 uM measured up to 60 mins in presence of NADPH by LC-MS/MS analysis; type: ADME, Macaca fascicularis; conditions: liver microsomes
[2] = Efflux ratio of permeability across basolateral to apical over apical to basolateral side in human Caco-2 cells measured up to 120 mins by LC-MS/MS analysis; type: ADME, cell-based
[3] = Cmax in cynomolgus monkey at 1 mg/kg, iv measured up to 24 hrs by LC-MS/MS analysis; type: ADME, organism-based, Macaca fascicularis; conditions: in vivo
[4] = Cmax in Beagle dog at 10 mg/kg, po measured up to 24 hrs by LC-MS/MS analysis; type: ADME, organism-based, Canis lupus familiaris; conditions: in vivo
[5] = Metabolic stability dog hepatocyte assessed as half life at 1 uM measured up to 120 mins by LC-MS/MS analysis; type: ADME, cell-based, Canis lupus familiaris; conditions: hepatocytes
[6] = AUClast in cynomolgus monkey at 20 mg/kg, po measured up to 24 hrs by LC-MS/MS analysis; type: ADME, organism-based, Macaca fascicularis; conditions: in vivo
[7] = target: T1, Protein cereblon/Interleukin-1 receptor-associated kinase 4 (Mus musculus, UniProt Q8C7D2+Q8R4K2); assay: PROTAC activity at CRBN/IRAK4 in mouse PBMC cells assessed as induction of IRAK4 degradation incubated for 24 hrs by HiBiT lytic reagent based analysis; type: cell-based
T1 sequence (Q8C7D2 whole entry): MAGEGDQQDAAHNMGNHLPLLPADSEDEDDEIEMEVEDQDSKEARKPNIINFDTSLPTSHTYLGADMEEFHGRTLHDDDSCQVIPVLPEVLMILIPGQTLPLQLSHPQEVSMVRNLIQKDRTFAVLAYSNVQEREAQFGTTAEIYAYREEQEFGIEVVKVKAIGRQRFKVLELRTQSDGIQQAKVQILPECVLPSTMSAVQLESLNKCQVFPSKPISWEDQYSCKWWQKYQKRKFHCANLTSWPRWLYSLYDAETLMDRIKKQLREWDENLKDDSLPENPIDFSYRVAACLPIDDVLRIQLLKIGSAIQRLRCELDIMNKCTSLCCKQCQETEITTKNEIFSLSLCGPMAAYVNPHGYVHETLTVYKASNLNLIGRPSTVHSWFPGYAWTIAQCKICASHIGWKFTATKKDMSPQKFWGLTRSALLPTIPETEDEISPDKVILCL
T1 sequence (Q8R4K2 whole entry): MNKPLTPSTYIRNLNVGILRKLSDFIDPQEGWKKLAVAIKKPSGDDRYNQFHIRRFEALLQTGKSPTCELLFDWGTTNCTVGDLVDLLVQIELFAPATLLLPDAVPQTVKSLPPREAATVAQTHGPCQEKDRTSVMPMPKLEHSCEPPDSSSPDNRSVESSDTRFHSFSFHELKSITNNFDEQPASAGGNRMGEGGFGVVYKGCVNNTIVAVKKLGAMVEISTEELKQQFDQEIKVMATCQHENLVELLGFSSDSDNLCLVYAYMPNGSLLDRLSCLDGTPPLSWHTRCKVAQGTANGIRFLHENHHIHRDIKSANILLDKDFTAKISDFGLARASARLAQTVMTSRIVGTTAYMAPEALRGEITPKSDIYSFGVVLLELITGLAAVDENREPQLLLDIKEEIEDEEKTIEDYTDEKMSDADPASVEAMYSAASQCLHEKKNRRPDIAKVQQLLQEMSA

Mus musculus [8] = assay: Anti-arthritic activity against collagen-induced arthritis DBA/1 mouse model assessed as reduction in pathological score at 30 mg/kg, po administered for 14 days; type: functional, organism-based; conditions: time 14.0 day
[9] = Oral bioavailability in cynomolgus monkey at 20 mg/kg measured up to 24 hrs by LC-MS/MS analysis; type: ADME, organism-based, Macaca fascicularis; conditions: in vivo
[10] = target: Protein cereblon/Interleukin-1 receptor-associated kinase 4 (Homo sapiens, UniProt Q9NWZ3+Q96SW2); assay: PROTAC activity at CRBN/IRAK4 in human PBMC cells assessed as induction of IRAK4 degradation incubated for 24 hrs by HiBiT lytic reagent based analysis; type: cell-based
Protein cereblon/Interleukin-1 receptor-associated kinase 4 (Homo sapiens, UniProt Q9NWZ3+Q96SW2), sequence (Q9NWZ3 whole entry): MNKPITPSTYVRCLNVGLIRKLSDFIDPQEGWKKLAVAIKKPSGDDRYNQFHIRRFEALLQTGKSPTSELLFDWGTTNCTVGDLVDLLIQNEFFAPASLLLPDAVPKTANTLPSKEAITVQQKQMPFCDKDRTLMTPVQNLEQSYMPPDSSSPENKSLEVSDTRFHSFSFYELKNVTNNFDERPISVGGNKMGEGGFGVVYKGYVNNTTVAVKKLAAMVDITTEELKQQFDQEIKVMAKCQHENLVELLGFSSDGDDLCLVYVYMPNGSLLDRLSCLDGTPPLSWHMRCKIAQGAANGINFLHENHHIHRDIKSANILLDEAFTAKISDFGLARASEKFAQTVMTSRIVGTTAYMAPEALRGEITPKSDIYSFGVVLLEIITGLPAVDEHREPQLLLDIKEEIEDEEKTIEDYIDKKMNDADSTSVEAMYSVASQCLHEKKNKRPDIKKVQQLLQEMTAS
Protein cereblon/Interleukin-1 receptor-associated kinase 4 (Homo sapiens, UniProt Q9NWZ3+Q96SW2), sequence (Q96SW2 whole entry): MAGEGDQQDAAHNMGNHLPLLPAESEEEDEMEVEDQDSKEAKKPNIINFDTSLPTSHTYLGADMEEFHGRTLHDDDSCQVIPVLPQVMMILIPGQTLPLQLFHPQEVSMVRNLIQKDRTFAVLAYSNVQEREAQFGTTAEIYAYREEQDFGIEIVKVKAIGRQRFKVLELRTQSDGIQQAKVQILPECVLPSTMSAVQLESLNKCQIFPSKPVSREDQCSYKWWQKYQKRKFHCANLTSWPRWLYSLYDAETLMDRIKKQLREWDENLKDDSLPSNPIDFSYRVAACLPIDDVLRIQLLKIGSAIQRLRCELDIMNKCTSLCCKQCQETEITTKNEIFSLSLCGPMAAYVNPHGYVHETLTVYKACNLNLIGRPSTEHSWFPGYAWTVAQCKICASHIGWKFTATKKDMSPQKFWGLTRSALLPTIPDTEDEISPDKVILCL

Mus musculus [11] = assay: Anti-arthritic activity against collagen-induced arthritis DBA/1 mouse model assessed as reduction in pathological score at 100 mg/kg, po administered for 14 days; type: functional, organism-based; conditions: time 14.0 day
[12] = Metabolic stability in rat liver microsome assessed as half life at 1 uM measured up to 60 mins in presence of NADPH by LC-MS/MS analysis; type: ADME; conditions: liver microsomes
[13] = Metabolic stability rat hepatocyte assessed as half life at 1 uM measured up to 120 mins by LC-MS/MS analysis; type: ADME, cell-based; conditions: hepatocytes
Mus musculus [14] = assay: Anti-psoriasis effect in IMQ-induced C57BL/6 mouse assessed as reduction in ear thickness at 10 mg/kg administered topically twice daily for 6 days and measured after 24 hrs; type: functional, organism-based; conditions: time 7.0 day
[15] = AUClast in male C57BL/6 mouse at 2 mg/kg, iv measured up to 24 hrs by LC-MS/MS analysis; type: ADME, organism-based; conditions: in vivo
[16] = Clearance in cynomolgus monkey at 1 mg/kg, iv measured up to 24 hrs by LC-MS/MS analysis; type: ADME, organism-based, Macaca fascicularis; conditions: in vivo
CYP3A4 = CYP3A4 (Homo sapiens, UniProt P08684); assay: Inhibition of CYP3A4 in human liver microsome using midazolam as substrate at 10 uM preincubated for 5 mins followed by NADPH addition and measured after 10 mins by LC-MS/MS analysis relative to control; type: ADME; conditions: human liver microsomes, probe midazolam, time 15 min
CYP3A4, sequence (P08684 whole entry): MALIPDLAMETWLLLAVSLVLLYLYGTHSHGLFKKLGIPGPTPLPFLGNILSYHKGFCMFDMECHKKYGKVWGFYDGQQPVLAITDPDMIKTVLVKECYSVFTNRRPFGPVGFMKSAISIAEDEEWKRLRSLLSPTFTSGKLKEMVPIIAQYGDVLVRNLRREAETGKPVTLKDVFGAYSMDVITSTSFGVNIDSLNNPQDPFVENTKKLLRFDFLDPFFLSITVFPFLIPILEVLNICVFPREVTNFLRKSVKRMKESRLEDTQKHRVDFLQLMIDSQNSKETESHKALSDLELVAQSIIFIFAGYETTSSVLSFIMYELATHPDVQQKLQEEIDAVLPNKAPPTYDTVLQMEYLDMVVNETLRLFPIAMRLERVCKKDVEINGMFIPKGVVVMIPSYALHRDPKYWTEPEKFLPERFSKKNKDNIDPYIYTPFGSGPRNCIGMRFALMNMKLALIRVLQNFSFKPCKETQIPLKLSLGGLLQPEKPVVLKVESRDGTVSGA

[17] = Volume of distribution at steady state in Beagle dog at 2 mg/kg, iv measured up to 24 hrs by LC-MS/MS analysis; type: ADME, organism-based, Canis lupus familiaris; conditions: in vivo
[18] = Volume of distribution at steady state in male C57BL/6 mouse at 2 mg/kg, iv measured up to 24 hrs by LC-MS/MS analysis; type: ADME, organism-based; conditions: in vivo, read-out: Vdss
[19] = Half life in Sprague-Dawley rat at 2 mg/kg, iv measured up to 24 hrs by LC-MS/MS analysis; type: ADME, organism-based; conditions: in vivo
[20] = AUClast in Beagle dog at 10 mg/kg, po measured up to 24 hrs by LC-MS/MS analysis; type: ADME, organism-based, Canis lupus familiaris; conditions: in vivo
[21] = Tmax in male C57BL/6 mouse at 10 mg/kg, po measured up to 24 hrs by LC-MS/MS analysis; type: ADME, organism-based; conditions: in vivo
[22] = Clearance in male C57BL/6 mouse at 2 mg/kg, iv measured up to 24 hrs by LC-MS/MS analysis; type: ADME, organism-based; conditions: in vivo
[23] = Kinetic solubility of compound in FaSSGF at […] incubated for 2 hr by LC-MS analysis; type: physicochemical; conditions: read-out: Kinetic_solubility
[24] = Cmax in male C57BL/6 mouse at 10 mg/kg, po measured up to 24 hrs by LC-MS/MS analysis; type: ADME, organism-based; conditions: in vivo
Mus musculus [25] = assay: Anti-psoriasis effect in IMQ-induced C57BL/6 mouse assessed as reduction in erythema intensity administered topically twice daily for 6 days and measured after 24 hrs; type: functional, organism-based; conditions: dose 10-100 mg/kg, time 7.0 day
[26] = Half life in Sprague-Dawley rat at 10 mg/kg, po measured up to 24 hrs by LC-MS/MS analysis; type: ADME, organism-based; conditions: in vivo
Mus musculus [27] = assay: Anti-psoriasis effect in IMQ-induced C57BL/6 mouse assessed as reduction in spleen weight at 30 mg/kg administered topically twice daily for 6 days and measured after 24 hrs; type: functional, organism-based; conditions: time 7.0 day

SMILES: Cn1c(=O)n(C2CCC(=O)NC2=O)c2cccc(C#CCO[C@H]3CC[C@H](CN4CCC5(CC4)Cc4cc(NC(=O)c6coc7cccnc67)c(N6CCC(CO)CC6)cc4O5)CC3)c21 (stereo partly drawn)
- half-life at 1 µM [1]: 1.98 h
- efflux ratio at 2 h [2]: 2.22
- Cmax [3]: 672 ng/mL
- Cmax [4]: 360 ng/mL
- half-life at 1 µM [5]: > 6.18 h
- AUC(0-t) at 24 h [6]: 4000 ng·h/mL
- DC50 [7]: 3.57 nM
- Activity (Mus musculus [8]): Active
- bioavailability [9]: 11%
- DC50 [10]: 0.43 nM
- Activity (Mus musculus [11]): Active
- half-life at 1 µM [12]: > 3.07 h
- half-life at 1 µM [13]: 2.65 h
- Activity (Mus musculus [14]): Active
- AUC(0-t) at 24 h [15]: 10600 ng·h/mL
- clearance [16]: 9.2 mL/min/kg
- inhibition at 10 min, 10 µM (CYP3A4): 19.1%
- Vdss [17]: 73 L/kg
- Vd [18]: 0.88 L/kg
- half-life [19]: 4 h
- AUC(0-t) at 24 h [20]: 6990 ng·h/mL
- Tmax [21]: 2.67 h
- clearance [22]: 3.13 mL/min/kg
- solubility kinetic at 2 h [23]: 252 µg/mL (≈ 290 µM)
- Cmax [24]: 1070 ng/mL
- Activity (Mus musculus [25]): Dose-dependent-effect
- half-life [26]: 3.43 h
- Activity (Mus musculus [27]): Active
